This experiment relates to Wnt signaling. Kind of experiment: TopFlash reporter gene bioassay in SW480 cells. It is filed as cell-based. The conditions noted are these: Homo sapiens, SW480, TopFlash reporter gene assay, inhibition of Wnt signaling; read-out: RGA, IC50 (μM) TopF. For orientation: In a reporter assay the amount or activity of a reporter protein is the signal.

This note sets out measurements from patent US8080657B2, “Compounds of reverse turn mimetics and the use thereof” (Choongwae Pharma Corporation, priority 2008, dated 2011).

The term IC50 denotes the midpoint of a concentration-inhibition curve.

In the case of `C=CCN1CC(=O)N2[C@@H](Cc3ccc(O)cc3)C(=O)N(Cc3cccc(-c4cccnc4)n3)C[C@@H]2N1C(=O)NCc1ccccc1` [compound 217], the IC50 was 3.87 ± 0.45 µM.

As for `C=CCN1CC(=O)N2[C@@H](Cc3ccc(O)cc3)C(=O)N(Cc3cccc(-c4ccsc4)c3)C[C@@H]2N1C(=O)NCc1ccccc1` [compound 72], the 50% inhibitory concentration (IC50) was determined as 0.9 ± 0.13 µM.

Consider `C=CCN1CC(=O)N2[C@@H](Cc3ccc(O)cc3)C(=O)N(Cc3csc4ccc(NCc5ccccc5)cc34)C[C@@H]2N1C(=O)NCc1ccccc1` [compound 55], for which the IC50 turned out to be 0.74 ± 0.08 µM.

In the case of `C=CCN1CC(=O)N2[C@@H](Cc3ccc(O)cc3)C(=O)N(Cc3cccc(-c4ccccc4)c3)C[C@@H]2N1C(=O)NCc1ccccc1` [compound 144], the 50% inhibitory concentration (IC50) was determined as 1.94 ± 0.48 µM.

`C=CCN1CC(=O)N2[C@@H](Cc3ccc(O)cc3)C(=O)N(Cc3cccc(-c4ccc(OC)cc4)c3)C[C@@H]2N1C(=O)NCc1ccccc1` [compound 140]: the concentration for half-maximal inhibition (IC50) came to 1.91 ± 0.24 µM.

As for `C=CCN1CC(=O)N2[C@@H](Cc3ccc(O)cc3)C(=O)N(Cc3cccc(C(=O)NCc4cccs4)c3)C[C@@H]2N1C(=O)NCc1ccccc1` [compound 53], the half-inhibitory concentration (IC50) stood at 0.73 ± 0.03 µM.

For the compound `C=CCN1CC(=O)N2[C@@H](Cc3ccc(O)cc3)C(=O)N(Cc3cccc(OC)c3OS(=O)(=O)c3ccc(Cl)cc3)C[C@@H]2N1C(=O)NCc1ccccc1` [compound 105], the half-maximal inhibitory concentration (IC50) is 1.27 ± 0.24 µM.

`C=CCN1CC(=O)N2[C@@H](Cc3ccc(O)cc3)C(=O)N(Cc3cccc4c(C(C)=O)cn(S(=O)(=O)c5ccc(Cl)cc5)c34)C[C@@H]2N1C(=O)NCc1ccccc1` [compound 6]: the 50% inhibitory concentration (IC50) is 0.18 ± 0.076 µM.

In the case of `C=CCN1CC(=O)N2[C@@H](Cc3ccc(O)cc3)C(=O)N(Cc3cccc4c3ccn4S(=O)(=O)c3ccc(C)cc3)C[C@@H]2N1C(=O)NCc1ccccc1` [compound 47], the IC50 was determined as 0.69 ± 0.19 µM.

Take `C=CCN1CC(=O)N2[C@@H](Cc3ccc(O)cc3)C(=O)N(C/C=C/c3ccccc3)C[C@@H]2N1C(=O)NCc1ccccc1` [compound 149]: the concentration for half-maximal inhibition (IC50) came to 10.1 ± 2.38 µM.

On to `C=CCN1CC(=O)N2[C@@H](Cc3ccc(O)cc3)C(=O)N(Cc3cccc(OC)c3OC3Cc4ccccc4C3)C[C@@H]2N1C(=O)NCc1ccccc1` [compound 226], for which the 50% inhibitory concentration (IC50) was 4.33 ± 0.5 µM.

For the compound `C=CCN1CC(=O)N2[C@@H](Cc3ccc(O)cc3)C(=O)N(Cc3cccc(-c4ccccc4O)c3)C[C@@H]2N1C(=O)NCc1ccccc1` [compound 115], the half-inhibitory concentration (IC50) came to 1.43 ± 0.27 µM.

For `C=CCN1CC(=O)N2[C@@H](Cc3ccc(O)cc3)C(=O)N(Cc3ccc(OC)c(Br)c3)C[C@@H]2N1C(=O)NCc1ccccc1` [compound 129], the half-maximal inhibitory concentration (IC50) is 1.64 ± 0.27 µM.

As for `C=CCN1CC(=O)N2[C@@H](Cc3ccc(O)cc3)C(=O)N(Cc3ccccc3SC)C[C@@H]2N1C(=O)NCc1ccccc1` [compound 17], the IC50 worked out at 0.42 ± 0.04 µM.

Consider `C=CCN1CC(=O)N2[C@@H](Cc3ccc(O)cc3)C(=O)N(Cc3cccnc3-c3cccc(C#N)c3)C[C@@H]2N1C(=O)NCc1ccccc1` [compound 257], for which the IC50 was determined as 7.26 ± 1.3 µM.

In the case of `C=CCN1CC(=O)N2[C@@H](Cc3ccc(O)cc3)C(=O)N(Cc3cccc4c(C(C)=O)c[nH]c34)C[C@@H]2N1C(=O)NCc1ccccc1` [compound 3], the half-maximal inhibitory concentration (IC50) was determined as 0.098 ± 0.014 µM.

Consider `C=CCN1CC(=O)N2[C@@H](Cc3ccc(O)cc3)C(=O)N(Cc3ccc(F)c(Br)c3)C[C@@H]2N1C(=O)NCc1ccccc1` [compound 16], for which the half-maximal inhibitory concentration (IC50) was 0.39 ± 0.05 µM.

Turning to `C=CCN1CC(=O)N2[C@@H](Cc3ccc(O)cc3)C(=O)N(Cc3cccc4c3ncn4CC(N)=O)C[C@@H]2N1C(=O)NCc1ccccc1` [compound 267], the IC50 is 6.63 ± 1.35 µM.

With `C=CCN1CC(=O)N2[C@@H](Cc3ccc(O)cc3)C(=O)N(Cc3cccc(-c4ccccc4OC)c3)C[C@@H]2N1C(=O)NCc1ccccc1` [compound 127], the IC50 was determined as 1.61 ± 0.31 µM.

Take `C=CCN1CC(=O)N2[C@@H](Cc3ccc(O)cc3)C(=O)N(Cc3cccc(-c4ccc(OC)cc4)n3)C[C@@H]2N1C(=O)NCc1ccccc1` [compound 134]: the IC50 is 1.73 ± 0.35 µM.

Take `C=CCN1CC(=O)N2[C@@H](Cc3ccc(O)cc3)C(=O)N(Cc3cccc(-c4ccc(N)nc4)c3)C[C@@H]2N1C(=O)NCc1ccccc1` [compound 40]: the IC50 turned out to be 0.63 ± 0.06 µM.
